What was measured:
[1] = molecular target: ubiquitin-specific protease 2 (USP2) (Homo sapiens, UniProt O75604, C284S); assay: thermal stability shift; assay type: cell-based
[2] = molecular target: ubiquitin-specific protease 2 (USP2) (Homo sapiens, UniProt O75604); assay: LC-MS/MS covalent adduct on recombinant USP2; assay type: biochemical
USP7 = USP7 (Homo sapiens, UniProt Q93009); assay: in vitro gel-based GST-UBA52 cleavage assay; assay type: biochemical
Chain of USP7 (Q93009 whole entry): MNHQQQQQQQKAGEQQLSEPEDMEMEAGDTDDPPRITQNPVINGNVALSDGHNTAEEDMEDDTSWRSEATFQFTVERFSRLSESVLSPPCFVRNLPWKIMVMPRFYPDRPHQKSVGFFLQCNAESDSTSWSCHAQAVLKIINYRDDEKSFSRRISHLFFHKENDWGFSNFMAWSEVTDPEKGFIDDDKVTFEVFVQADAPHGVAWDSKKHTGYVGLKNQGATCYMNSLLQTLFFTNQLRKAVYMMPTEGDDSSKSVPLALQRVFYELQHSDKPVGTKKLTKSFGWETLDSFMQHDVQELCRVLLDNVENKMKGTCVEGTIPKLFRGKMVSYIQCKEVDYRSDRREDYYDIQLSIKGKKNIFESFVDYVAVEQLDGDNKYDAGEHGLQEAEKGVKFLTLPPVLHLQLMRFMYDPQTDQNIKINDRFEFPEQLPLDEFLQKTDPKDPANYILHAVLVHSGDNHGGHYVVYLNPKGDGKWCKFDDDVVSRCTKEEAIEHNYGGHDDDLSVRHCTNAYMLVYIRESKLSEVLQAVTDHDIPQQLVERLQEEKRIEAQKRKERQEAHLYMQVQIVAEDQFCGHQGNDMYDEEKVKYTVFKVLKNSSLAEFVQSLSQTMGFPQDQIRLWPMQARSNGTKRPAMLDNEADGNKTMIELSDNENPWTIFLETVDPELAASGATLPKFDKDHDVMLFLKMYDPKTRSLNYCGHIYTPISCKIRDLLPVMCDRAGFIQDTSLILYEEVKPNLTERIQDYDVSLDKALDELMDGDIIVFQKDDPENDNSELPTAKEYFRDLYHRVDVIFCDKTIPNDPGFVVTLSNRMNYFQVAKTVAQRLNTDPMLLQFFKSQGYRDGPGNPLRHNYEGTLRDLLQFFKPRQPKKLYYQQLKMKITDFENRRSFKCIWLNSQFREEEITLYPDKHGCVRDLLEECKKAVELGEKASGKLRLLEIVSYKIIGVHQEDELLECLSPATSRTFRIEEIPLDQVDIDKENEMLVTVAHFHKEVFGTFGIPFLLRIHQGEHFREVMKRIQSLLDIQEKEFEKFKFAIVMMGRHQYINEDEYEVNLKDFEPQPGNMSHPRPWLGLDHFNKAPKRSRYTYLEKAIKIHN

Chain of ubiquitin-specific protease 2 (USP2) (Homo sapiens, UniProt O75604, C284S) (O75604 whole entry C284S): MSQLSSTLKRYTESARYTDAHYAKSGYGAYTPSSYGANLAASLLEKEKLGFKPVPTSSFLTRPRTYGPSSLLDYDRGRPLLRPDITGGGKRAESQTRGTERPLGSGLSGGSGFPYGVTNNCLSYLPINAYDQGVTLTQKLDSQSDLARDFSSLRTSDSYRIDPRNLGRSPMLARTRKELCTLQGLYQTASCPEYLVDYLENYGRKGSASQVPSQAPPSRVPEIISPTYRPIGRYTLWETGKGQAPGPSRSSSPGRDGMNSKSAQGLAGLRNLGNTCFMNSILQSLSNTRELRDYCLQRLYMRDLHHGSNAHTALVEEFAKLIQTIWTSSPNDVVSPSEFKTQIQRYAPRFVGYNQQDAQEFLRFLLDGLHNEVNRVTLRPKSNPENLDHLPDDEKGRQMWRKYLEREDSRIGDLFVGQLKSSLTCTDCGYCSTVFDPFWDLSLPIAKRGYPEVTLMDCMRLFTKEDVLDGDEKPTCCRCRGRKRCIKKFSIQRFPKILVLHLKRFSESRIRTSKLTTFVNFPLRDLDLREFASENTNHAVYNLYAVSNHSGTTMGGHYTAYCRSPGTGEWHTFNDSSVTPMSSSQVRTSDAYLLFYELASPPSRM
Chain of ubiquitin-specific protease 2 (USP2) (Homo sapiens, UniProt O75604) (O75604 259-605): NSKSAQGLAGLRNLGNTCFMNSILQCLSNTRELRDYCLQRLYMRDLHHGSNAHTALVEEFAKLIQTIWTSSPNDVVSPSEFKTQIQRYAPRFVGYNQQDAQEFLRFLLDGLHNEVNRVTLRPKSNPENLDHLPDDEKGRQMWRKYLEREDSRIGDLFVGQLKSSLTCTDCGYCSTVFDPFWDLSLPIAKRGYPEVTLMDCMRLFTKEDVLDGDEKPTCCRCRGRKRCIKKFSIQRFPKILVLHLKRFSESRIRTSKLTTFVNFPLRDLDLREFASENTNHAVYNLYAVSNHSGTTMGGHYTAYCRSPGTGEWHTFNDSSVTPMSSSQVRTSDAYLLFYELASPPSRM

`CC(C)=CCC[C@]1(C)C=Cc2c(O)c3c(c(CC=C(C)C)c2O1)O[C@]12C(=C[C@@H]4C[C@H]1C(C)(C)O[C@@]2(C/C=C(/C)C(=O)O)C4=O)C3=O` [GA, gambogic acid] was tested, and the “thermal stability shift (Fig. S15)” value [1] was “the thermal stability of USP2^Cys284S could also be altered by GA”, the IC50 [2] was 1.8 µM and the IC50 (USP7) was 17 µM.

Reference: article PMC11725127 (Acta Pharmaceutica Sinica. B, 2024)
